According to ChEMBL document CHEMBL1697781, “Assessment of the health effects of chemicals in humans: II. Construction of an adverse effects database for QSAR modeling” (Curr Drug Discov Technol, 2004):

How the values were obtained:
Settings in all cases: human
[1] = test system: Hepatotoxicity; experiment: FDA HLAED, serum glutamic pyruvic transaminase (SGPT) increase
[2] = test system: Hepatotoxicity; experiment: FDA HLAED, liver enzyme composite activity
[3] = test system: Hepatotoxicity; experiment: FDA HLAED, gamma-glutamyl transferase (GGT) increase
[4] = test system: Hepatotoxicity; experiment: FDA HLAED, lactate dehydrogenase (LDH) increase
[5] = test system: Hepatotoxicity; experiment: FDA HLAED, alkaline phosphatase increase
[6] = test system: Hepatotoxicity; experiment: FDA HLAED, serum glutamic oxaloacetic transaminase (SGOT) increase
For GGT Increase - Index Value in this document: reference of the scale not given here.
For LDH Increase - Index Value in this document: reference of the scale not given here.

CC(=O)NO [ACETOHYDROXAMIC ACID]
0: SGPT Increase - Index Value [1] | Composite Activity - Active [2] | Composite Activity - Marginal [2] | GGT Increase - Index Value [3] | LDH Increase - Index Value [4] | Alkaline Phosphatase Increase - Index Value [5] | SGOT Increase - Index Value [6]
Inactive: SGPT Increase - Activity Score [1] | Composite Activity - Score [2] | GGT Increase - Activity Score [3] | LDH Increase - Activity Score [4] | Alkaline Phosphatase Increase - Activity Score [5] | SGOT Increase - Activity Score [6]
< 4: SGPT Increase - Number of Reports [1] | GGT Increase - Number of Reports [3] | LDH Increase - Number of Reports [4] | Alkaline Phosphatase Increase - Number of Reports [5] | SGOT Increase - Number of Reports [6]

Nc1nc2c(ncn2COCCO)c(=O)[nH]1 [ACYCLOVIR]
< 4: SGPT Increase - Number of Reports [1] | GGT Increase - Number of Reports [3] | LDH Increase - Number of Reports [4]
0.9: Alkaline Phosphatase Increase - Index Value [5] | SGOT Increase - Index Value [6]
Inactive: SGPT Increase - Activity Score [1] | Composite Activity - Score [2] | GGT Increase - Activity Score [3] | LDH Increase - Activity Score [4] | Alkaline Phosphatase Increase - Activity Score [5] | SGOT Increase - Activity Score [6]
0.1: SGPT Increase - Index Value [1] | LDH Increase - Index Value [4]
>= 4: Alkaline Phosphatase Increase - Number of Reports [5] | SGOT Increase - Number of Reports [6]
0: Composite Activity - Active [2] | Composite Activity - Marginal [2] | GGT Increase - Index Value [3]

Nc1ncnc2c1ncn2[C@@H]1O[C@H](CO)[C@@H](O)[C@H]1O [ADENOSINE]
Inactive: SGPT Increase - Activity Score [1] | Composite Activity - Score [2] | GGT Increase - Activity Score [3] | LDH Increase - Activity Score [4] | Alkaline Phosphatase Increase - Activity Score [5] | SGOT Increase - Activity Score [6]
0: SGPT Increase - Index Value [1] | Composite Activity - Active [2] | Composite Activity - Marginal [2] | GGT Increase - Index Value [3] | LDH Increase - Index Value [4] | Alkaline Phosphatase Increase - Index Value [5] | SGOT Increase - Index Value [6]
< 4: SGPT Increase - Number of Reports [1] | GGT Increase - Number of Reports [3] | LDH Increase - Number of Reports [4] | Alkaline Phosphatase Increase - Number of Reports [5] | SGOT Increase - Number of Reports [6]

CC(C)(C)NCC(O)c1ccc(O)c(CO)c1 (stereo not drawn) [ALBUTEROL]
0.1: SGOT Increase - Index Value [6]
< 4: SGPT Increase - Number of Reports [1] | GGT Increase - Number of Reports [3] | LDH Increase - Number of Reports [4] | Alkaline Phosphatase Increase - Number of Reports [5] | SGOT Increase - Number of Reports [6]
0: SGPT Increase - Index Value [1] | Composite Activity - Active ([2]; Liver) | Composite Activity - Marginal ([2]; Liver) | GGT Increase - Index Value [3] | LDH Increase - Index Value [4] | Alkaline Phosphatase Increase - Index Value [5]
Inactive: SGPT Increase - Activity Score [1] | Composite Activity - Score ([2]; Liver) | GGT Increase - Activity Score [3] | LDH Increase - Activity Score [4] | Alkaline Phosphatase Increase - Activity Score [5] | SGOT Increase - Activity Score [6]

CCC(=O)OCC(=O)[C@@]1(OC(=O)CC)[C@H](C)C[C@H]2[C@H]3[C@H]([C@@H](O)C[C@@]21C)[C@@]1(C)C=CC(=O)C=C1C[C@H]3Cl [ALCLOMETASONE DIPROPIONATE]
< 4: SGPT Increase - Number of Reports [1] | GGT Increase - Number of Reports [3] | LDH Increase - Number of Reports [4] | Alkaline Phosphatase Increase - Number of Reports [5] | SGOT Increase - Number of Reports [6]
0: SGPT Increase - Index Value [1] | Composite Activity - Active [2] | Composite Activity - Marginal [2] | GGT Increase - Index Value [3] | LDH Increase - Index Value [4] | Alkaline Phosphatase Increase - Index Value [5] | SGOT Increase - Index Value [6]
Inactive: SGPT Increase - Activity Score [1] | Composite Activity - Score [2] | GGT Increase - Activity Score [3] | LDH Increase - Activity Score [4] | Alkaline Phosphatase Increase - Activity Score [5] | SGOT Increase - Activity Score [6]

C[C@@H]1C[C@H]2[C@H]3[C@H]([C@@H](O)C[C@]2(C)[C@@]1(O)C(=O)CO)[C@@]1(C)C=CC(=O)C=C1C[C@H]3Cl [ALCLOMETASONE]
0: SGPT Increase - Index Value [1] | Composite Activity - Active [2] | Composite Activity - Marginal [2] | GGT Increase - Index Value [3] | LDH Increase - Index Value [4] | Alkaline Phosphatase Increase - Index Value [5] | SGOT Increase - Index Value [6]
Inactive: SGPT Increase - Activity Score [1] | Composite Activity - Score [2] | GGT Increase - Activity Score [3] | LDH Increase - Activity Score [4] | Alkaline Phosphatase Increase - Activity Score [5] | SGOT Increase - Activity Score [6]
< 4: SGPT Increase - Number of Reports [1] | GGT Increase - Number of Reports [3] | LDH Increase - Number of Reports [4] | Alkaline Phosphatase Increase - Number of Reports [5] | SGOT Increase - Number of Reports [6]
